Consider seven compounds from US10039761B2, “Co-crystals and pharmaceutical compositions comprising the same” (Vertex Pharmaceuticals Incorporated, priority 2013, dated 2018).

For orientation: IC50 means the midpoint of a concentration-inhibition curve. As a reminder, the Ki is a dissociation constant, usually derived from enzyme kinetics or from competition with a known ligand. Lower therefore signals a stronger hold on the target.

The subject of data set [1] is ESO26 (GEJ) cancer cell line. Nature of the data set: Combination with genotoxic agents, viability (Mixtures analysis). In kind it is cell-based. As to conditions: single agent IC50 on which the mixtures were based. Here is the method: (§1) The cell-based experiments and assays were performed with either molecule but not always with both. Compounds (1) and (2) were generally very similar in those assays and experiments. Analysis of the combination experiments was performed using two methods: the Bliss Additivity model and the Mixtures Blend method to determine the degree of synergy, additivity, or antagonism. In the Bliss method, a matrix of Bliss scores was generated for each cell line and treatment, and a sum of the Bliss values over the range of combination concentrations tested was calculated. […] Larger average Bliss values indicate greater confidence in reporting synergy, and smaller scores indicate greater confidence in reporting antagonism. In the Mixtures Blend method combinants were added in a range of optimal ratios using design of experiment (DOE) software (DX-8 from STAT-EASE); the cells were irradiated with 2 Gy as required. Synergy was determined using statistical analysis of the data (ANOVA) to indicate linear (additivity) or statistically significant (p<0.1) non-linear (antagonism or synergy) mixes of the combinants.

For data set [2], the system named is MDA-MB-436. The data set is described as follows: Doxorubicin combination in triple negative breast cancer cells. In kind it is cell-based. The note with it: Homo sapiens, BRCA mutant. How it is done:
as §1

Data set [3] deals with MDA-MB-468. Described as above. In kind it is cell-based. The note with it: Homo sapiens, BRCA wild-type. How it is done:
as §1

The test system of data set [4] is HCC-1599. The data set is described as above. In kind it is cell-based. The note with it: Homo sapiens, HCC1599, read-out: Doxorubicin IC50 (μM); plating density unknown; BRCA mutant. How it is done:
as §1

Data set [5] deals with HCC-1937. The data set is described as above. The note with it: Homo sapiens, BRCA mutant. In kind it is cell-based. How it is done: as §1
Data set [6] deals with HCC-1395. Described as above. In kind it is cell-based. The note with it: Homo sapiens, HCC1395, read-out: Doxorubicin IC50 (μM); plating density 5000; BRCA mutant. How it is done: as §1
Data set [7] can be described thus: Two stage dissolution (FaSSGF then FaSSIF). In kind it is physicochemical. As to conditions: 37° C., compared with free form.
Protocol: Two stage dissolution experiments were performed at least in duplicate. Fasted state simulated gastric fluid (FaSSGF) was equilibrated for 30 minutes under stirring to 37° C. in a 100 ml clear class vial using a water bath consisting of a temperature controlled jacketed vessel. The compound 1:adipic acid co-crystal and compound 2:adipic acid co-crystal was added and the suspension was stirred at about 130 rpm and 37° C., respectively. Aliquots (0.5 ml) were taken at 5, 15, 30, and 60 minutes. Solids were separated by filter centrifugation using centrifuge filter units with a 0.45 μm membrane and spinning at 5000 rpm for 5 minutes on an Eppendorff Model 5418 centrifuge. The pH of the dissolution samples was measured after sampling at 15 and 60 minute time points. The supernatants of the filtered samples were 10 fold diluted of with diluent for HPLC Analysis. At the 65 minute timepoint fasted state simulated intestinal fluid FaSSIF equilibrated at 37° C. was added to the suspension and the suspension was continued to stir at 130 rpm. Aliquots (0.5 ml) were taken at 75, 90, 120 and 180 minute timepoints. Solids were separated by filter centrifugation using centrifuge filter units with a 0.45 μm membrane and spinning at 5000 rpm for 5 minutes on an Eppendorff Model 5418 centrifuge. The pH of the dissolution samples was measured after sampling at 75, 90 and 180 minute time points. […]
Data set [8] deals with DNA-PK (Homo sapiens, UniProt P78527). The data set is described as follows: DNA-PK kinase inhibition radiometric assay. In kind it is biochemical. The note with it: 100 μM ATP; competitive tight-binding inhibition fit. How it is done: Accordingly, compounds of the invention were dissolved in DMSO to make 10 mM initial stock solutions. Serial dilutions in DMSO were then made to obtain the final solutions for the assay.

Read-outs that look alike come from different tables or passages of the source.

As for `O=c1[nH]cc(F)c(=O)[nH]1` [Compound 5-FU, fluorouracil], the IC50 in data set [1] was 20000 nM.

With `COc1cccc2c1C(=O)c1c(O)c3c(c(O)c1C2=O)C[C@@](O)(C(=O)CO)C[C@@H]3O[C@H]1C[C@H](N)[C@H](O)[C@H](C)O1` [Doxorubicin, reference compound], the half-maximal inhibitory concentration (IC50) in data set [2] (MDA-MB-436, read-out: Doxorubicin IC50 (μM), plating density 5000) came out at 0.7 µM; in data set [2] (MDA-MB-436, read-out: Doxorubicin IC50 (μM), plating density 20000), 0.3 µM; in data set [3] (MDA-MB-468, read-out: Doxorubicin IC50 (μM), plating density 5000) it was 0.02 µM; in data set [3] (MDA-MB-468, read-out: Doxorubicin IC50 (μM), plating density 20000), 0.04 µM; in data set [4] it was 0.2 µM; in data set [5] (HCC1937, read-out: Doxorubicin IC50 (μM), plating density 5000) it was 0.2 µM. Besides, the IC50 in data set [5] (HCC1937, read-out: Doxorubicin IC50 (μM), plating density 20000) was found to be 0.6 µM; in data set [6], 0.5 µM.

For the compound `N.N.O=C([O-])C1(C(=O)[O-])CCC1.[Pt+2]` [carboplatin], in data set [1], the IC50 worked out at 50000 nM.

For the compound `[2H]c1nc(C)nc([2H])c1-c1cc(NC[C@@H](C)c2cccc3c(C(=O)NC)ccnc23)ncn1` [adipic acid co-crystal of Compound (2)], the “two stage dissolution concentrations” value in data set [7] was “higher Compound 1 and Compound 2 concentrations than Compound 1 or Compound 2 free form”. Moreover, the Ki in data set [8] is approximately 2 nM.

Consider `COc1cc([C@@H]2c3cc4c(cc3[C@@H](O[C@@H]3O[C@@H]5CO[C@@H](C)O[C@H]5[C@H](O)[C@H]3O)[C@H]3COC(=O)[C@H]23)OCO4)cc(OC)c1O` [etoposide], for which the IC50 in data set [1] came out at 600 nM.

As to `N.N.[Cl][Pt][Cl]` [cisplatin], the IC50 in data set [1] is 1500 nM.

With `CC(=O)O[C@H]1C(=O)[C@@]2(C)[C@H]([C@H](OC(=O)c3ccccc3)[C@]3(O)C[C@H](OC(=O)[C@H](O)[C@@H](NC(=O)c4ccccc4)c4ccccc4)C(C)=C1C3(C)C)[C@]1(OC(C)=O)CO[C@@H]1C[C@@H]2O` [paclitaxel], the IC50 in data set [1] is 3 nM.
